# Results as given in patent US20240182941A1, “XYLOSYLATED STEVIOL GLYCOSIDES AND ENZYMATIC METHODS FOR PRODUCTION” (CARGILL, INCORPORATED, priority 2021, published 2024).
# Where “and” joins values, the source holds several entries; their conditions need not be identical. Equal entries are not always repeated.
# Experiments:
# [1] = test system: glycosyltransferase polypeptide of SEQ ID NO:1; assay: SG bioconversion with UDP-xylose using enzyme of SEQ ID NO:1; type: biochemical, Oryza sativa Japonica Group; conditions: enzyme SEQ ID NO:1, 2 ug protein, 96 hours, 30C, runs 1 and 2
# Protocol: (§1) Six steviolglycoside (SG) ‘acceptors’ Reb A, B, C, D, M and stevioside were tested using 2 glucosyltransferase enzymes (SEQ ID NO:1 and UGT76G1) known to play key roles in SG biosynthesis in stevia leaves and activated xylose (UDP-xylose).
# (§2) UDP-xylose (98.9% purity) and UDP-rhamnose di-sodium salt (95% purity) were purchased from BOC Sciences. The activated sugar donors were prepared to 10 mM concentration with 0.05 M tris buffer and stored according to manufacturers' recommendations before use.
# (§3) Enzyme of SEQ ID NO:1 and UGT76G1 enzyme were prepared in E. coli host cells as tagged proteins with expression induced by a chemical inducer. Following induction, the cells were incubated overnight and harvested. The cells were then lysed (either through sonication, mechanical disruption or chemical lysis) and the proteins purified through chromatography and stored frozen at −20C till use. Enzyme activities were confirmed using UDP-glucose in a preliminary test. Frozen enzyme solution was thawed right before use and returned to frozen storage after use.
# (§4) SG materials were obtained from various sources with 90%+ purities. All SG materials were prepared at 20 mM with 90% DMSO and stored at ambient temperature. Final DMSO concentration in the reaction mixture was 4.5%.
# (§5) Sucrose, previously shown to have a stabilizing effect on the bioconversion reaction, was prepared at 0.1 M with 0.05 M tris buffer.
# (§6) Tris (tris(hydroxymethyl)aminomethane) buffer was prepared at 0.05 M, pH 7.3 and contained 3 mM each of MgCl2 and MnCl2 as co-factors.
# (§7) Bioconversion reaction was carried out in a total of 100 uL sealed vials containing the Tris buffer, 0.1 μmoles of SG acceptor, 0.2 μmoles of activated sugar donor, 1 μmoles of sucrose and 2 ug protein of the enzymes. To each vial, buffer, sucrose, UDP-sugar donor, and SG acceptor were added in that order before finally the enzymes were added. For each SG donor, a control was included to contain the same amounts of sucrose and enzymes without UDP-sugar donors. After hand mixing, the vials were placed in a temperature-controlled shaker set at 30C and 100 rpm in rotating motion for 96 hours (4 days).
# (§8) After 4 days of reaction, 0.9 mL of 80% acetonitrile was added to each vial and the resulting samples were analyzed in LC/MS. Xylose modification of the -19C(O)-β-Glc residue was confirmed.
# UGT76G1 = target: T1, UGT76G1 (Stevia rebaudiana, UniProt Q6VAB4); assay: SG bioconversion with UDP-xylose using UGT76G1; type: biochemical; conditions: enzyme UGT76G1, 2 ug protein, 96 hours, 30C, runs 1 and 2
# T1 construct: unspecified tag; made in house; host or cells: E. coli
# T1 sequence (Q6VAB4 1-458): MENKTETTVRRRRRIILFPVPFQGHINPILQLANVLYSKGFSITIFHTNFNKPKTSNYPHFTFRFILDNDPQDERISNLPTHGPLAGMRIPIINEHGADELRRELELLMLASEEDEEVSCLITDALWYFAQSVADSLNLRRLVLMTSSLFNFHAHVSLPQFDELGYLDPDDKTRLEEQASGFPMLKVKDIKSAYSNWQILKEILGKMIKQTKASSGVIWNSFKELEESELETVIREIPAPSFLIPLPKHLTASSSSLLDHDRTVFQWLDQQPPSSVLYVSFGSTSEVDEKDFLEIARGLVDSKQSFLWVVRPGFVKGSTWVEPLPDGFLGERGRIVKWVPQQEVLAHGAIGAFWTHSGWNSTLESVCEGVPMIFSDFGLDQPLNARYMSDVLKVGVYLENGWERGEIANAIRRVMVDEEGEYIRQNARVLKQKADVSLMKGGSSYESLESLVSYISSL
# Protocol: as §1, §2, §3, §4, §5, §6, §7, §8
# [2] = cited from earlier work
# [3] = test system: purified protein of SEQ ID NO:1; assay: Time course of glycosylation of Reb A using SEQ ID NO:1 and activated sugars; type: biochemical, Oryza sativa Japonica Group
# Protocol: as §7, §8
# The ability of SEQ ID NO:1 to glycosylate Reb A with different activated sugars used at different concentrations was examined, with the reaction products formed being measured over the course of the reaction.
# Purified protein of SEQ ID NO:1 was used with UDP-glucose, UDP-xylose, and UDP-rhamnose di-sodium salts, and the reagents and reaction conditions were as described in Example 1.
compound,measurement,setting,value
"C=C1C[C@@]23CC[C@H]4[C@@](C)(CCC[C@@]4(C)C(=O)O[C@@H]4O[C@H](CO)[C@@H](O)[C@H](O)[C@H]4O)[C@@H]2CC[C@]1(O[C@@H]1O[C@H](CO)[C@@H](O)[C@H](O)[C@H]1O[C@@H]1O[C@H](CO)[C@@H](O)[C@H](O)[C@H]1O)C3 [Stevioside, stevioside]",% SG bioconversion with UDP-xylose,[1],85.9% and 90.2%
same,% SG bioconversion with UDP-xylose,[1]; listed as stevioside,very high conversion
same,% SG bioconversion with UDP-xylose,UGT76G1,40.5% and 39.0%
rebaudioside C [Reb C],sweetness relative to glucose,[2]; times sweeter than glucose,30 times
same,% SG bioconversion with UDP-xylose,UGT76G1,11.0% and 10.1%
C=C1C[C@@]23CC[C@H]4[C@@](C)(CCC[C@@]4(C)C(=O)O)[C@@H]2CC[C@]1(O[C@@H]1O[C@H](CO)[C@@H](O)[C@H](O[C@@H]2O[C@H](CO)[C@@H](O)[C@H](O)[C@H]2O)[C@H]1O[C@@H]1O[C@H](CO)[C@@H](O)[C@H](O)[C@H]1O)C3 [Reb B],% SG bioconversion with UDP-xylose,[1],0%
same,% SG bioconversion with UDP-xylose,UGT76G1,0%
"C=C1C[C@@]23CC[C@H]4[C@@](C)(CCC[C@@]4(C)C(=O)O[C@@H]4O[C@H](CO)[C@@H](O)[C@H](O[C@@H]5O[C@H](CO)[C@@H](O)[C@H](O)[C@H]5O)[C@H]4O[C@@H]4O[C@H](CO)[C@@H](O)[C@H](O)[C@H]4O)[C@@H]2CC[C@]1(O[C@@H]1O[C@H](CO)[C@@H](O)[C@H](O[C@@H]2O[C@H](CO)[C@@H](O)[C@H](O)[C@H]2O)[C@H]1O[C@@H]1O[C@H](CO)[C@@H](O)[C@H](O)[C@H]1O)C3 [Reb M, Rebaudioside M]",% SG bioconversion with UDP-xylose,[1],0%
same,% SG bioconversion with UDP-xylose,UGT76G1,0%
"C=C1C[C@@]23CC[C@H]4[C@@](C)(CCC[C@@]4(C)C(=O)O[C@@H]4O[C@H](CO)[C@@H](O)[C@H](O)[C@H]4O)[C@@H]2CC[C@]1(O[C@@H]1O[C@H](CO)[C@@H](O)[C@H](O[C@@H]2O[C@H](CO)[C@@H](O)[C@H](O)[C@H]2O)[C@H]1O[C@@H]1O[C@H](CO)[C@@H](O)[C@H](O)[C@H]1O)C3 [Reb A, rebaudioside A]",sweetness relative to sucrose,[2]; times sweeter than sucrose,250-300 times
same,glucosylation and xylosylation plateaued after,[3]; 1 mM activated sugars,20 min
same,Rhamnosylation using UDP-rhamnose compared with glucosylation and xylosylation,[3]; 2 mM activated sugars,significantly lower
same,glucosylation and xylosylation plateaued after,[3]; 2 mM activated sugars,20 min
same,% Reb A bioconversion,"[3]; UDP-Glucose (1 mM), 0 hours",0%
same,% Reb A bioconversion,"[3]; UDP-Glucose (1 mM), 18 hours",68.47%
same,% Reb A bioconversion,"[3]; UDP-Glucose (1 mM), 48 hours",68.6%
same,% Reb A bioconversion,"[3]; UDP-Glucose (1 mM), 96 hours",68.1%
same,% Reb A bioconversion,"[3]; UDP-Glucose (2 mM), 0 hours",0%
same,% Reb A bioconversion,"[3]; UDP-Glucose (2 mM), 18 hours",84.93%
same,% Reb A bioconversion,"[3]; UDP-Glucose (2 mM), 48 hours",83.9%
same,% Reb A bioconversion,"[3]; UDP-Glucose (2 mM), 96 hours",82.1%
same,% Reb A bioconversion,"[3]; UDP-Rhamnose (2 mM), 0 hours",0%
same,% Reb A bioconversion,"[3]; UDP-Rhamnose (2 mM), 18 hours",14.7%
same,% Reb A bioconversion,"[3]; UDP-Rhamnose (2 mM), 48 hours",25%
same,% Reb A bioconversion,"[3]; UDP-Rhamnose (2 mM), 96 hours",30%
same,% Reb A bioconversion,"[3]; UDP-Xylose (1 mM), 0 hours",0%
same,% Reb A bioconversion,"[3]; UDP-Xylose (1 mM), 18 hours",60.09%
same,% Reb A bioconversion,"[3]; UDP-Xylose (1 mM), 48 hours",60.39%
same,% Reb A bioconversion,"[3]; UDP-Xylose (1 mM), 96 hours",60.66%
same,% Reb A bioconversion,"[3]; UDP-Xylose (2 mM), 0 hours",0%
same,% Reb A bioconversion,"[3]; UDP-Xylose (2 mM), 18 hours",83.26%
same,% Reb A bioconversion,"[3]; UDP-Xylose (2 mM), 48 hours",83.5%
same,% Reb A bioconversion,"[3]; UDP-Xylose (2 mM), 96 hours",82.33%
"C=C1C[C@@]23CC[C@H]4[C@@](C)(CCC[C@@]4(C)C(=O)O[C@@H]4O[C@H](CO)[C@@H](O)[C@H](O)[C@H]4O[C@@H]4O[C@H](CO)[C@@H](O)[C@H](O)[C@H]4O)[C@@H]2CC[C@]1(O[C@@H]1O[C@H](CO)[C@@H](O)[C@H](O[C@@H]2O[C@H](CO)[C@@H](O)[C@H](O)[C@H]2O)[C@H]1O[C@@H]1O[C@H](CO)[C@@H](O)[C@H](O)[C@H]1O)C3 [Reb D, Rebaudioside D]",% SG bioconversion with UDP-xylose,[1],~10%
same,% SG bioconversion with UDP-xylose,UGT76G1,0%
